# Assay results: patent publication US20060282906A1, “Non-transgenic rodent model of Alzheimer's disease” (priority 2005, published 2006)
# Marks after values point to notes of the source that are not given here. Where no end group is shown, it is not given here.
# Experiments:
# Male Wistar rats [1] = test: Immunohistochemistry of rat brain sections, grading scale of staining size and intensity; type: in vivo; design: key to NKκB(p65) immunostaining signal / COX-2 immunostaining signal / GFAP immunostaining signal / OX-6 immunostaining signal / APP immunostaining signal / Tau-2 immunostaining signal / TNFα immunostaining signal / Cas-3 immunostaining signal: n.s.: no positive staining; +: moderate immunostaining signal; ++: strong immunostaining signal; +++: strongest immunostaining signal
# Experimental: (§3) All rats were anesthetized using 40 mg/kg of pentobarbital (Somnotol; MTC Pharmaceuticals, Cambridge, Ontario) intraperitoneally. Body temperature was maintained at 37° C. Aβ(25-35) (50 nmol in 10 μL of saline) was injected bilaterally into the lateral ventricles. Aβ(25-35) was prepared according to established methods (Sigurdsson, et al. (1997) supra). Aβ(25-35) (50 nmol in 10 μL of saline at a rate of 1 μL/minute) was injected bilaterally into the lateral ventricles via a stainless-steel cannula (23-gauge; anterior/posterior −0.8, medial/lateral ±1.4, and dorsal/ventral −4.0 below dura). Two endothelin injections (6 pmol in 3 μL of saline), 1 mm apart, were made into the right striatum (Sigurdsson, et al. (1997) supra). Sham procedures involved all the surgical steps without injections of Aβ(25-35) or endothelin. After wound suture, all rats received 40 mg/kg of buprenorphine intramuscularly and were allowed to recover from surgery for 7 days.
# (§4) Twenty-one days after surgery, all animals were euthanized via pentobarbital overdose and perfused transaortically first with saline followed by 4% formaldehyde (pH 7.4). The brains were removed and cryoprotected in 30% sucrose for 36 hours at 4° C. Coronal sections (30 pm) were cut using a cryostat.
# (§5) Free-floating sections from rat brains (n=5 for each group) were treated with 0.03% hydrogen peroxide and blocked with 3 mL of horse or rabbit serum (VECTASTAIN® Elite, Vector Laboratories, Burlingame, Calif.). The following primary antibodies were diluted in filtered phosphate-buffered saline: APPa4 mouse monoclonal (Chemicon International Inc, Temecula, Calif.; 1:1000), GFAP mouse monoclonal (Sigma-Aldrich, St Louis, Mo.; 1:1000), OX-6 mouse monoclonal (Serotec, Inc., Raleigh, N.C.; 1:1000), Tau-2 mouse monoclonal (Sigma-Aldrich, St Louis, Mo.; 1:10000), NFκB(p65) goat polyclonal (Santa Cruz Biotechnologies, Santa Cruz, Calif.; 1:1000), IL-1β goat polyclonal (Santa Cruz Biotechnologies, Santa Cruz, Calif.; 1:1000), and TNF-α-M18 goat polyclonal (Santa Cruz Biotechnologies, Santa Cruz, Calif.; 1:1000). APP-, Tau-2-, GFAP-, and OX-6-stained sections were incubated with 3 mL of horse biotinylated anti-mouse secondary antibody and horse serum. NFκB(p65), IL-1β, and TNF-α-stained sections were incubated with 3 mL of biotinylated rabbit anti-goat secondary antibody and rabbit serum. Sections were then incubated in 3 mL of avidin-biotin complex followed by 0.05% diaminobenzidine. Sections were washed, air-dried, cleared in xylene, and cover-slipped. Brains to be compared were processed at the same time using the same solutions to reduce variability in immunostaining caused by separate processing.
# (§6) Digital photographs were taken using a light microscope (Leitz Diaplan). An investigator was blinded to the identification of the rat sections while analysis was being performed. All immunohistochemical data that were compared was processed at the same time to reduce any variation caused by differences of intensity. A grading scale was based on both observable size and intensity of staining (n=5 for each group). Also, relative optical density measurements and numbers of stained cells or accumulations were measured in entire brain areas for quantitative analysis and statistically analyzed with ANOVA and Tukey post hoc test with a significance level of P<0.05.
# Male Wistar rats [2] = test: Quantitative immunohistochemistry: relative optical density and numbers of stained cells or accumulations; type: in vivo, rat; details: for APP Accumulation / GFAP Intensity / OX6 Intensity: vehicle (not in brackets), mean ± SEM, n = 4
# Experimental: as §3, §4, §5, §6
# Male Wistar rats [3] = test: Montoya staircase test; type: in vivo, rat
# Experimental: (§1) Male Wistar rats (250 to 300 grams; Charles River, Montreal, Quebec) were divided into 4 groups: intracerebroventricular injections of Aβ(25-35) (BACHEM, Torrance, Calif.); endothelin injections into the right striatum; both Aβ(25-35) and striatal endothelin injections; and sham procedures. The Aβ(25-35) fragment was used to reduce the possibility of rapid coagulation and to allow diffusion of the peptide into the brain.
# (§2) All rats were anesthetized using 40 mg/kg of pentobarbital (Somnotol; MTC Pharmaceuticals, Cambridge, Ontario) intraperitoneally. Body temperature was maintained at 37° C. Aβ(25-35) (50 nmol in 10 μL of saline) was injected bilaterally into the lateral ventricles. Aβ(25-35) was prepared according to established methods (Sigurdsson, et al. (1997) supra). Aβ(25-35) (50 nmol in 10 μL of saline at a rate of 1 μL/minute) was injected bilaterally into the lateral ventricles via a stainless-steel cannula (23-gauge; anterior/posterior −0.8, medial/lateral ±1.4, and dorsal/ventral −4.0 below dura). Two endothelin injections (6 pmol in 3 μL of saline), 1 mm apart, were made into the right striatum (Sigurdsson, et al. (1997) supra). Sham procedures involved all the surgical steps without injections of Aβ(25-35) or endothelin. After wound suture, all rats received […] of buprenorphine intramuscularly and were allowed to recover from surgery for 7 days.
# For training (n=10 for each group), rats were placed into the Montoya staircase apparatus (Montoya, et al. (1991) supra) at the same time every day for 8 days (days −8 through −1) and were allowed to perform the test for 20 minutes. Rats were food-deprived for 1 day (day −9) before testing, as well as on day −8. On days −7 though −1, rats were fed 10 grams of their normal chow so that they maintained their body weight at ˜85%. Three NOYES LAB ANIMAL PRECISION FOOD PELLETS™ (Research Diets, Inc., New Brunswick, N.J.) were placed in each of the 14 wells (7 on each side). Pellets eaten were recorded from each well. Re-testing trials, which were performed 7 days after the surgical procedures (day 0), were performed for 8 days in the same way as the training trials (days 8 through 15).
# Digital photographs were taken using a light microscope (Leitz Diaplan). An investigator was blinded to the identification of the rat sections while analysis was being performed. […] Also, relative optical density measurements and numbers of stained cells or accumulations were measured in entire brain areas for quantitative analysis and statistically analyzed with ANOVA and Tukey post hoc test with a significance level of P<0.05. […] The staircase data are expressed as the mean±SEM. […] Data are expressed as mean±SEM. […]
# Male Wistar rats [4] = test: Congo Red histochemistry of rat brain sections; type: in vivo; details: Aβ: lesions in fornix, anterior hippocampus, CA1 hippocampus; endothelin: infarct
# Experimental: as §1
# as §2, with “days. […]” for “days.”
sequence,measurement,setting,value
"GSNKGAIIGLM [Aβ, β-amyloid fragment (25-35), 50 nmol injected bilaterally into the lateral ventricles of rats]",APP immunostaining signal,Male Wistar rats [1]; Corpus Callosum,+
same,COX-2 immunostaining signal,Male Wistar rats [1]; Corpus Callosum,+
same,GFAP immunostaining signal,Male Wistar rats [1]; Corpus Callosum,+
same,NKκB(p65) immunostaining signal,Male Wistar rats [1]; Corpus Callosum,+
same,OX-6 immunostaining signal,Male Wistar rats [1]; Corpus Callosum,+
same,TNFα immunostaining signal,Male Wistar rats [1]; Corpus Callosum,+
same,Tau-2 immunostaining signal,Male Wistar rats [1]; Corpus Callosum,+
same,APP immunostaining signal,Male Wistar rats [1]; Cortex,+
same,COX-2 immunostaining signal,Male Wistar rats [1]; Cortex,+
same,GFAP immunostaining signal,Male Wistar rats [1]; Cortex,+
same,NKκB(p65) immunostaining signal,Male Wistar rats [1]; Cortex,+
same,OX-6 immunostaining signal,Male Wistar rats [1]; Cortex,+
same,TNFα immunostaining signal,Male Wistar rats [1]; Cortex,+
same,Tau-2 immunostaining signal,Male Wistar rats [1]; Cortex,+
same,APP immunostaining signal,Male Wistar rats [1]; Hippocampus,+
same,COX-2 immunostaining signal,Male Wistar rats [1]; Hippocampus,+
same,GFAP immunostaining signal,Male Wistar rats [1]; Hippocampus,+
same,NKκB(p65) immunostaining signal,Male Wistar rats [1]; Hippocampus,+
same,OX-6 immunostaining signal,Male Wistar rats [1]; Hippocampus,+
same,Tau-2 immunostaining signal,Male Wistar rats [1]; Hippocampus,+
same,APP immunostaining signal,Male Wistar rats [1]; Hypothalamus,+
same,NKκB(p65) immunostaining signal,Male Wistar rats [1]; Hypothalamus,+
same,TNFα immunostaining signal,Male Wistar rats [1]; Hypothalamus,+
same,APP immunostaining signal,Male Wistar rats [1]; Striatum (right),n.s.
same,COX-2 immunostaining signal,Male Wistar rats [1]; Striatum (right),n.s.
same,Cas-3 immunostaining signal,Male Wistar rats [1]; Striatum (right),n.s.
same,GFAP immunostaining signal,Male Wistar rats [1]; Striatum (right),+
same,NKκB(p65) immunostaining signal,Male Wistar rats [1]; Striatum (right),n.s.
same,OX-6 immunostaining signal,Male Wistar rats [1]; Striatum (right),n.s.
same,TNFα immunostaining signal,Male Wistar rats [1]; Striatum (right),n.s.
same,OX-6 immunostaining signal,Male Wistar rats [1]; Thalamus (right),+
same,TNFα immunostaining signal,Male Wistar rats [1]; Thalamus (right),+
same,average numbers of OX-6-stained microglia,Male Wistar rats [2]; CA1 of the hippocampus,13.4±5.1
same,Average intensity measurements for GFAP,Male Wistar rats [2]; Hippocampus,162.9±8.7
same,APP Accumulation,Male Wistar rats [2]; Left Cortex,36.8 ± 7.8^y
same,GFAP Intensity,Male Wistar rats [2]; Left Hippocampus,167.5 ± 5.2
same,OX6 Intensity,Male Wistar rats [2]; Left Hippocampus,116.2 ± 6.7
same,APP Accumulation,Male Wistar rats [2]; Right Cortex,37.8 ± 5.4^y
same,GFAP Intensity,Male Wistar rats [2]; Right Hippocampus,166.5 ± 4.2
same,OX6 Intensity,Male Wistar rats [2]; Right Hippocampus,119.3 ± 9.1
same,"Staircase test performance, ipsilateral paw","Male Wistar rats [3]; day 8 (first day of re-testing), mean±SEM",73±8 % of pretreatment
same,total number of pellets eaten,"Male Wistar rats [3]; day 8 compared with the last day of training, disappeared by day 9",significant deficit
same,Congo Red staining,Male Wistar rats [4],stained amyloid positive with Congo Red
